Consider four compounds from publication PMC8143347, “Metabolism and Interspecies Variation of IMMH-010, a Programmed Cell Death Ligand 1 Inhibitor Prodrug” (Pharmaceutics, 2021).

The nature of series [1]: Identification of IMMH-010 metabolites in rat urine, bile and feces. Type of series: in vivo. The settings on record: after oral IMMH-010 maleate 5 mg/kg. On the procedure: After oral administration of IMMH-010 maleate (5 mg/kg), two rats were housed in metabolic cages to collect urine and feces samples for 24 h. Feces samples were homogenized with methanol at 1:10 (w/v) and urine samples were diluted 10-fold in methanol. Additionally, two rats were bile duct cannulated under isoflurane anesthesia. After oral administration of IMMH-010 maleate (5 mg/kg), bile samples were collected over 0–2 h after dosing.
LC-MS was performed using a Thermo Scientific Q Exactive HF hybrid quadrupole-Orbitrap mass spectrometer. Reverse-phase liquid chromatography was performed on a Zorbax C18 column (100 × 2.1 mm, 3.5 μm). Mobile phase A was 0.1% aqueous formic acid and mobile phase B was 0.1% formic acid in methanol. The mobile phase was delivered with the following gradient elution profile: 0 min, 10% B; 15 min, 40% B; 17–19 min, 100% B; 20–23 min, 10% B. The total runtime for each injection was 23 min. The flow rate was 0.3 mL/min, and the column oven was maintained at 30 °C.
The analysis was performed in full mass spectrometry with data-dependent tandem mass spectrometry (MS/dd-MS^2) mode. For a full mass spectrometry scan, the selected scan range was from m/z 100 to 500, the resolution was 70,000, and the automatic gain control (AGC) target was set to 1.0 × 10^6 with a maximum injection time (IT) of 100 ms. For the dd-MS^2 scan, the fragmentation mass spectra were recorded at a mass resolving power of 17,500 fwhm with a quadrupole isolation window of 1.5 m/z for precursor ions. The AGC target was 2.0 × 10^5 and the maximum IT was 50 ms.
Xcalibur 4.1 software (Thermo Fisher Scientific, San Jose, CA, USA) was used for instrument control and data processing. Compound Discover 2.0 software was used for metabolite identification.

The nature of series [2]: Metabolism in human intestinal microsomes. Conditions: NADPH-dependent. Type of series: in vitro ADME. As to the method: (§1) To compare the differences in IMMH-010 metabolism between the liver and intestine, IMMH-010 (10 μM) was incubated with rat liver and intestinal S9 homogenate protein (1 mg protein/mL) and with human liver and intestinal microsomes (0.2 mg protein/mL) in a final volume of 0.2 mL Tris-HCl buffer (50 mM, pH 7.4) containing 5 mM MgCl2. The incubations were performed in duplicate in the presence and absence of an NADPH regenerating system. After 2 min preincubation at 37 °C, reactions were initiated by the addition of IMMH-010 (10 μM). Incubations were terminated by acetonitrile at 0, 10, and 20 min. IMMH-010, YPD-29B, M2, and M3 were quantified by LC-MS/MS assay. Midazolam (10 μM, a substrate of CYP3A4) was set as the positive control.

Series [3] relates to cDNA-expressed human CYPs and FMOs. Description: IMMH-010 metabolism by cDNA-expressed human CYPs and FMOs. Type of series: in vitro ADME. Conditions: IMMH-010 10 µM, 50 pmol enzyme, 30 min, NADPH. On the procedure: cDNA-expressed human CYPs were also used to investigate the enzymes mediating IMMH-010 metabolism. IMMH-010 (10 µM) was incubated individually with 50 pmol of 10 individual cDNA-expressed human CYPs (CYP1A1, CYP1A2, CYP2A6, CYP2B6, CYP2C9, CYP2C19, CYP2D6, CYP2E1, CYP2J2, or CYP3A4) and three cDNA-expressed human FMO enzymes (FMO1, FMO3, and FMO5) at 37 °C for 30 min. An NADPH regeneration system was added to initiate the reactions. Probe substrates of the CYPs were used as the positive controls. Incubations without NADPH served as the negative controls. All reactions were carried out in a final volume of 0.2 mL Tris-HCl buffer (50 mM, pH 7.4) containing 5 mM MgCl2 and conducted in triplicate. All incubations were terminated by 2 volumes of acetonitrile. After centrifugation at 14,000 rpm for 5 min, the samples were analyzed by LC-MS/MS.

Series [4] can be described thus: Metabolism in human liver S9 fractions. Type of series: in vitro ADME. The settings on record: human, monkey, dog and rat liver S9 incubations of IMMH-010 10 μM. As to the method:
IMMH-010 metabolism was compared in human, monkey, dog, and rat liver S9 homogenates. IMMH-010 (10 μM) was incubated with liver S9 homogenate protein (0.5 mg protein/mL) and a reduced nicotinamide adenine dinucleotide phosphate (NADPH) regenerating system in a final volume of 0.2 mL Tris-HCl buffer (50 mM, pH 7.4) containing 5 mM MgCl2. The reactions were performed in triplicate. After 2 min of preincubation at 37 °C, reactions were initiated by the addition of IMMH-010 (10 μM). The samples were collected 0, 5, 10, and 20 min after incubation, 2 volumes of acetonitrile were added to terminate the reaction. After vortexing and centrifugation, IMMH-010, YPD-29B, M3, and M4 in the supernatant were analyzed by LC-MS/MS.
All statistics were calculated using GraphPad Prism 8.0 software (San Diego, CA, USA) designed for one-way ANOVA. Pharmacokinetic parameters were calculated with a non-compartmental analysis using WinNonlin Version 6.3 (Pharsight, Mountain View, CA, USA). ADMET predictor V10.0 (Simulations Plus, Inc., Lancaster, CA, USA) and Microsoft Excel (Microsoft, Redmond, WA, USA) were used to process the data (i.e., half-life (t1/2) and hepatic clearance (CLhep) determination). Data were expressed as means ± standard deviations (SD). Results were considered statistically significant if the p-value <0.05, <0.01 and <0.001.

Series [5] in a line: Metabolism in human liver microsomes. Type of series: in vitro ADME. Conditions: NADPH-dependent. As to the method: as §1
Series [6] has as its target T1, CES1 (Homo sapiens, UniProt P23141).
T1 sequence (P23141 18-567): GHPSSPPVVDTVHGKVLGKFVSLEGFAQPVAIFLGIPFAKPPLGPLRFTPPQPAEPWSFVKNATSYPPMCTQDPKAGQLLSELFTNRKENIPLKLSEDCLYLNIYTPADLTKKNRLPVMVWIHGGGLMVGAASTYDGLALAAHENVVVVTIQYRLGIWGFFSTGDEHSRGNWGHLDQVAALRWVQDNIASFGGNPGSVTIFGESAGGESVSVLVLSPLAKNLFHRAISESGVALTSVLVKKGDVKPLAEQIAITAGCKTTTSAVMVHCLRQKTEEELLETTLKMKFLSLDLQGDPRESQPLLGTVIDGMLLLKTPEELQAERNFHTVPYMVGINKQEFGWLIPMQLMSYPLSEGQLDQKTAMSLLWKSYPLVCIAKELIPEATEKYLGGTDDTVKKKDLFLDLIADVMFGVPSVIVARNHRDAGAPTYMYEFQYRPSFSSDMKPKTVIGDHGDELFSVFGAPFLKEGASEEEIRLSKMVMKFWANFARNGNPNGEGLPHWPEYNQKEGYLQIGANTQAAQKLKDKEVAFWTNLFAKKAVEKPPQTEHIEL
Put plainly: Chemical inhibition of IMMH-010 hydrolysis in HLM, selective CES1 inhibitor. Type of series: in vitro ADME. Also noted: tissue BD Gentest; host or cells: pooled mixed-gender human liver microsomes. The settings on record: 100 μM inhibitor, IMMH-010 10 µM, HLM 0.2 mg/mL, 15 min, vs no inhibitor group. As to the method:
(§2) Selective chemical inhibitors and recombinant human enzymes were used to investigate the esterase responsible for IMMH-010 metabolism in HLM. The selective CES1 and CES2 inhibitors were digitonin (100 μM) and telmisartan (50 μM), respectively. IMMH-010 (10 µM) was incubated with HLM (0.2 mg/mL) at 37 °C for 0 and 15 min in the presence of chemical inhibitors. Control samples were incubated without inhibitors.

Series [7] concerns the target T2, CES2 (Homo sapiens, UniProt O00748).
T2 sequence (O00748 27-559): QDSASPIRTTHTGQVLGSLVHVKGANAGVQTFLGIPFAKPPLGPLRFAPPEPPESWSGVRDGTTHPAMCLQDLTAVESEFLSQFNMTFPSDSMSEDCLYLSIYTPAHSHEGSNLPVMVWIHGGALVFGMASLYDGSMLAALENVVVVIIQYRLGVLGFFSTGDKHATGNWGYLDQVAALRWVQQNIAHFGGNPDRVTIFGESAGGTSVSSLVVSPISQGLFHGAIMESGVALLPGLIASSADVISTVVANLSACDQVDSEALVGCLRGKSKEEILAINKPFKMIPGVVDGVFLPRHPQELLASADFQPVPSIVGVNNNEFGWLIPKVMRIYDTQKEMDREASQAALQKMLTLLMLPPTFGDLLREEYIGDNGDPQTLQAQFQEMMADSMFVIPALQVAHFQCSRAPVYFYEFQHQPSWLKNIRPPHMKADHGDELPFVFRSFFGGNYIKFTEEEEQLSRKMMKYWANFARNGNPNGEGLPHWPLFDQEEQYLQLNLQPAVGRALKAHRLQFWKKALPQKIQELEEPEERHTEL
Put plainly: Chemical inhibition of IMMH-010 hydrolysis in HLM, selective CES2 inhibitor. Type of series: in vitro ADME. Also noted: tissue BD Gentest; host or cells: pooled mixed-gender human liver microsomes. The settings on record: 50 μM inhibitor, IMMH-010 10 µM, HLM 0.2 mg/mL, 15 min. As to the method:
as §2

Series [8] is described as follows: IMMH-010 stability in mouse plasma. Type of series: in vitro ADME. The settings on record: 10 μM, after 1 h of incubation. As to the method:
(§3) IMMH-010 hydrolysis was investigated in human, monkey, rat, and mouse plasma. IMMH-010 (1 μM) was incubated in human, monkey, or dog plasma (0.2 mL) at 37 °C for 120 min. IMMH-010 (10 μM) was incubated in rat or mouse plasma (0.2 mL) at 4 °C for 60 min. The experiments were performed in triplicate. The reactions were initiated by the addition of IMMH-010 (10 μM). After incubation, the reactions were stopped by adding 2 volumes of ice-cold acetonitrile. After vortexing and centrifuging, the concentrations of IMMH-010 and YPD-29B in the supernatant were determined by liquid chromatography with tandem mass spectrometry (LC-MS/MS). The compound olmesartan (10 μM), a substrate of paraoxonase 1, was set as the positive control.

Series [9] in a line: IMMH-010 stability in human plasma. Type of series: in vitro ADME. Conditions: 10 μM, after 1 h of incubation. As to the method:
as §3, with “IMMH-010 (1 μM) was incubated in human, monkey, or dog plasma (0.2 mL) at 37 °C for 120 min.” left out

Series [10] can be described thus: IMMH-010 stability in monkey plasma. Type of series: in vitro ADME. The settings on record: 10 μM, after 1 h of incubation. On the procedure:
as §3, with “IMMH-010 (1 μM) was incubated in human, monkey, or dog plasma (0.2 mL) at 37 °C for 120 min.” left out

The nature of series [11]: IMMH-010 stability in rat plasma. Type of series: in vitro ADME. Conditions: 10 μM, after 1 h of incubation. As to the method:
as §3

Each structure is given as a SMILES string. “Also recorded” adds a separate entry of the source.

In the case of `OCc1cc(Cl)c(OCc2cccc(-c3ccccc3)c2Br)cc1OCc1cccnc1` [M3], the “metabolite in rat feces and bile” value in series [1] is listed as “detected”. Further, the “transformation ratio of IMMH-010 to this metabolite” value in [2] and in series [5] was less than 2% each time. In addition, the “enzyme with the highest metabolic activity for formation of the metabolite” value in series [3] is recorded as “CYP2D6”. Also, the “amount of minor metabolite formed” value in series [4] is reported as less than 3%.
Take `C[C@@H]1CC[C@@]2(OC1)O[C@H]1[C@@H](O)[C@H]3[C@@H]4CC[C@H]5C[C@@H](O[C@@H]6O[C@H](CO)[C@H](O[C@@H]7O[C@H](CO)[C@@H](O)[C@H](O[C@@H]8OC[C@@H](O)[C@H](O)[C@H]8O)[C@H]7O[C@@H]7O[C@H](CO)[C@H](O)[C@H](O[C@@H]8O[C@H](CO)[C@@H](O)[C@H](O)[C@H]8O)[C@H]7O)[C@H](O)[C@H]6O)[C@H](O)C[C@]5(C)[C@H]4CC[C@]3(C)[C@H]1[C@@H]2C` [digitonin]: the “inhibition of the formation of YPD-29B” value in [6] worked out at 35.8%.
On to `CCCc1nc2c(C)cc(-c3nc4ccccc4n3C)cc2n1Cc1ccc(-c2ccccc2C(=O)O)cc1` [telmisartan], for which the “inhibition of the formation of YPD-29B” value in series [7] was “did not inhibit; also recorded: no inhibition”.
Regarding `CCCc1nc(C(C)(C)O)c(C(=O)O)n1Cc1ccc(-c2ccccc2-c2nnn[nH]2)cc1` [olmesartan, reference compound], the “decrease of control compound in plasma” value in series [8], in [9], in [10] and in series [11] was “more than 80%” each time.
